Source: patent US11571397B2, “Compositions and methods for treating seizure-induced sudden death” (ZOGENIX INTERNATIONAL LIMITED, priority 2018, dated 2023)

Tested on: DBA/1 mice
Assay: AGSz and S-IRA in DBA/1 mice tested for the first time at 16 h after FFA pretreatment
Format: in vivo, mouse
Source text: The typical seizure semiology in the DBA/1 mice begins with a wild running phase, followed by clonic-tonic seizures and then tonic hind-limb extension that immediately leads to S-IRA during post-ictal behavioral depression (PID). The onset of S-IRA was visually determined by the occurrence of respiratory failure following loss of the righting reflex, relaxation of the pinnae, and then a generalized loss of muscle tone. These behaviors are reliable indicators of imminent sudden death in DBA mice. Resuscitation was initiated within 10 s after pinna relaxation and the generalized loss of muscle tone, which was effective in reversing S-IRA and reviving >90% of the mice. The mice were placed in a supine position, and a polyethylene tube (4.4 mm external diameter) connected to the outflow of a rodent respirator (Harvard Apparatus 680), pumping one cc of room air at 200 strokes/min, was the placed over the nostrils, which produced observable displacement of the chest. Respiratory support was provided until spontaneous breathing rhythm returned, which required ˜19 sec. The mice were monitored until they regained the righting reflex and then returned to their home cage. Video recordings of seizure behaviors and recovery were made for off-line evaluation and analysis, including the duration of PID, as indicated by time from muscle tone loss to return of the righting reflex.
FIGS. 4A and 4B illustrate the reduction in the incidence of severe seizures and prevention of S-IRA by FFA pretreatment. In subsequent experiments, AGSz were examined in DBA/1 mice that were treated with 15 mg/kg of FFA i.p. but were initially tested at 16 h. […] [#p<0.001 (Chi-square test] (FIG. 4B). The return of S-IRA susceptibility (94.5%) in the FFA treated mice occurred at 48 h consistent with the previous findings (FIG. 2C).

[1] = 15 mg/kg i.p., first tested at 16 h (n=73)

Structure (SMILES): CCNC(C)Cc1cccc(C(F)(F)F)c1 (racemic) [FFA, 3-trifluoromethyl-N-ethylamphetamine]
- overall incidence of S-IRA [1]: 21.9%
- overall incidence of tonic seizures [1]: 68.5%
- incidence of selective S-IRA blockade among mice that continued to display tonic seizures (15 mg/kg, 16 h (n=50)): 68%
- return of S-IRA susceptibility (at 48 h after 15 mg/kg): 94.5%
